Laboratory results as given in patent publication US5541174A, “Analgesic method” (priority 1995, dated 1996).

Experiments:
[1] = test system: acetic acid induced writhing in mice; assay: Acetic acid-induced writhing test; assay type: in vivo, ICR male mice
Method: 1. Acetic acid-induced writhing test as described in Koster et al., "Acetic Acid for Analgesic Screening", Fed. Proc. 18, 412 (1959), incorporated by reference herein; and
Groups of 10 ICR male mice (Taisho Pharmaceutical Co. Research Center) were used to study each dose of every compound. Ligands or complexes were administered orally or subcutaneously in 0.1 ml of vehicle per 10 g of body weight 30 minutes before the intrapertioneal injection of 0.1 ml of 0.7% acetic acid solution per 10 g of body weight. Number of writhes were counted for each mouse during a period of 10 to 20 min after acetic acid injection. Inhibitory percent was calculated by comparison with the number of writhes in the non-treated control, vehicle-treated, and acetic acid-injected group. The ED50 value and 95% confidence limits were calculated from the inhibitory percent by the method of Litchfield and Wilcoxon.

[2] = test system: adjuvant-induced arthritic pain in rats; assay: Adjuvant-induced arthritic pain; assay type: in vivo, male Sprague-Dawley rats; conditions: oral
Description: 2. Adjuvant-induced arthritic pain as described in:
S. KUZNA, et al., Measurement of Arthritic Pain and Effects of Analgesics in the Adjuvant-Treated Rat, Chem. Pharm. Bull. 23, 1184-1191 (1975);
C. A. WINTER, et al., Analgesic Activity of Diflunisal in Rats with Hyperalygesia Induced by Freud's Adjuvant, J. Pharmacol. Exp. Ther. 211, 678-685 (1979; and
M. E. ROSENTHALE, et al., Adjuvant Arthritis:Immuno-Pathological and Hyperalgesic Features, Fed. Proced. 41, 2577-2582 (1982),
incorporated by reference herein.
Groups of 5-6 male Sprague-Dawley rats (Taisho Pharmaceutical Co. Research Center) weighing 140 to 160 g at the time of Mycobacterium butyricum (adjuvant, Difco Laboratories, Detroit, Mich.) injection were used to study each compound. Rats were injected intradermally at the base of the tail with 0.1 ml of a parafin oil suspension of 0.5 mg of heat-killed mycobacterium. Fifteen to 19 days later, drugs were administered orally or subcutaneously in 0.5 ml of vehicle per 100 g of body weight to rats showing the nociceptive reaction, vocalization following a gentle flexion of the tarsal-tibial joint of the inflamed hind-paw. Vocalization responses were measured every hour for 5 hours. […] The ED50 value and 95% confidence limits were calculated from the positive rate for non-treated controls, vehicle-treated adjuvant arthritic rats, by the method of Litchfield and Wilcoxin.
All drugs were suspended with 5% gum arabic in saline solution or wetted with enough propylene glycol to give a final concentration of 4% propylene glycol and the wetted solid suspended in 1.4% polyvinyl alcohol in saline.

COc1ccc2c(c1)c(CC(=O)O)c(C)n2C(=O)c1ccc(Cl)cc1 [Indomethacin, reference compound]
ED50 ([1]; oral, 5% gum arabic in saline): 0.04 mmol/kg | % Inhibition ([1]; oral, 5% gum arabic, 0.01 mmol/kg): 36% | % Inhibition ([1]; oral, 5% gum arabic, 0.03 mmol/kg): 42% | % Inhibition ([1]; oral, 5% gum arabic, 0.06 mmol/kg): 58% | ED50 ([1]; oral, PG-PVA in saline): 0.01 mmol/kg | % Inhibition ([1]; oral, PG-PVA, 0.007 mmol/kg): 27% | % Inhibition ([1]; oral, PG-PVA, 0.014 mmol/kg): 60% | % Inhibition ([1]; oral, PG-PVA, 0.028 mmol/kg): 68% | ED50 ([1]; s.c., PG-PVA in saline): 0.02 mmol/kg | % Inhibition ([1]; s.c., PG-PVA, 0.007 mmol/kg): 19% | % Inhibition ([1]; s.c., PG-PVA, 0.014 mmol/kg): 36% | % Inhibition ([1]; s.c., PG-PVA, 0.056 mmol/kg): 60% | ED50 ([2]; 5% gum arabic in saline): 0.003 mmol/kg | % Inhibition ([2]; 5% gum arabic, 0.001 mmol/kg): 27% | % Inhibition ([2]; 5% gum arabic, 0.003 mmol/kg): 43% | % Inhibition ([2]; 5% gum arabic, 0.006 mmol/kg): 77% | ED50 ([2]; PG-PVA in saline): 0.02 mmol/kg | % Inhibition ([2]; PG-PVA, 0.007 mmol/kg): 23% | % Inhibition ([2]; PG-PVA, 0.014 mmol/kg): 43% | % Inhibition ([2]; PG-PVA, 0.028 mmol/kg): 70%

O=C(O)c1cccnc1Nc1cccc(C(F)(F)F)c1 [Niflumic acid, 2[3(trifluoro-methyl)phenyl] aminonicotinic acid, reference compound]
ED50 ([1]; oral, 5% gum arabic in saline): 0.15 mmol/kg | % Inhibition ([1]; oral, 5% gum arabic, 0.18 mmol/kg): 52% | % Inhibition ([1]; oral, 5% gum arabic, 0.71 mmol/kg): 75% | ED50 ([1]; oral, PG-PVA in saline): 0.21 mmol/kg | % Inhibition ([1]; oral, PG-PVA, 0.13 mmol/kg): 38% | % Inhibition ([1]; oral, PG-PVA, 0.27 mmol/kg): 51% | % Inhibition ([1]; oral, PG-PVA, 0.53 mmol/kg): 80% | ED50 ([1]; s.c., PG-PVA in saline): 0.10 mmol/kg | % Inhibition ([1]; s.c., PG-PVA, 0.04 mmol/kg): 21% | % Inhibition ([1]; s.c., PG-PVA, 0.09 mmol/kg): 54% | % Inhibition ([1]; s.c., PG-PVA, 0.18 mmol/kg): 64% | ED50 ([2]; 5% gum arabic in saline): 0.42 mmol/kg | % Inhibition ([2]; 5% gum arabic, 0.18 mmol/kg): 13% | % Inhibition ([2]; 5% gum arabic, 0.71 mmol/kg): 87% | ED50 ([2]; PG-PVA in saline): 0.48 mmol/kg | % Inhibition ([2]; PG-PVA, 0.18 mmol/kg): 23% | % Inhibition ([2]; PG-PVA, 0.71 mmol/kg): 60%

O=C(O)c1ccccc1O [Salicylic acid, reference compound]
ED50 ([1]; oral, 5% gum arabic in saline): 2.13 mmol/kg | % Inhibition ([1]; oral, 5% gum arabic, 0.91 mmol/kg): 29% | % Inhibition ([1]; oral, 5% gum arabic, 1.81 mmol/kg): 33% | % Inhibition ([1]; oral, 5% gum arabic, 3.62 mmol/kg): 73% | ED50 ([1]; oral, PG-PVA in saline): > 2.17 mmol/kg | % Inhibition ([1]; oral, PG-PVA, 2.17 mmol/kg): 38% | ED50 ([1]; s.c., PG-PVA in saline): 1.02 mmol/kg | % Inhibition ([1]; s.c., PG-PVA, 0.54 mmol/kg): 25% | % Inhibition ([1]; s.c., PG-PVA, 1.09 mmol/kg): 52% | % Inhibition ([1]; s.c., PG-PVA, 2.17 mmol/kg): 80% | ED50 ([2]; 5% gum arabic in saline): 2.33 mmol/kg | % Inhibition ([2]; 5% gum arabic, 1.09 mmol/kg): 27% | % Inhibition ([2]; 5% gum arabic, 2.17 mmol/kg): 57% | % Inhibition ([2]; 5% gum arabic, 4.34 mmol/kg): 37% | time course of analgesia ([2]; 5% gum arabic, FIG. 1, 5 hours post-treatment): began to decline in the 3 to 4 hr interval following treatment | ED50 ([2]; PG-PVA in saline): 1.83 mmol/kg | % Inhibition ([2]; PG-PVA, 0.72 mmol/kg): 33% | % Inhibition ([2]; PG-PVA, 1.44 mmol/kg): 43% | % Inhibition ([2]; PG-PVA, 2.88 mmol/kg): 60%
